Experimental data published in patent US20090181948A1, “DIAMINE DERIVATIVE” (KYOWA HAKKO KOGYO CO., LTD., priority 2005, published 2009).

Each compound was assayed against T1, histamine H3 receptor (Rattus norvegicus, UniProt Q9QYN8) (assay: Histamine H3 receptor binding assay ([3H]-Nα-methylhistamine binding to rat striatum homogenate)). Conditions: 1 μmol/L test compound; [3H]-Nα-methylhistamine 1 nmol/L; striata of Sprague-Dawley male rats, 25° C., 1 hour; read-out: Inhibition ratio of [3H]-Nα-methylhistamine binding.
T1 construct: from tissue; host or cells: rat striatum (Sprague-Dawley, male, 6 weeks), membrane homogenate
Procedure: To the striata of Sprague-Dawley male rats (6 weeks of age), a 10-fold volume of lysis buffer {50 mmol/L [[…] (Tris)]/HCl (pH 7.4), 5 mmol/L ethylenediaminetetraacetic acid (EDTA), a protease inhibitor mixture [1 mg/mL phenylmethylsulfonyl fluoride (PMSF), 1 μg/mL pepstatin A, 1 μg/mL leupeptin, 1 μg/mL chymostatin]} was added and the striata were homogenized. The resulting homogenate was centrifuged (30,000×g, 4° C., 30 min), and the obtained precipitate was resuspended in a 10-fold volume of lysis buffer, followed by centrifugation under the same condition. To the obtained precipitate, a 3-fold volume of lysis buffer was added to suspend the precipitate, and the resulting tissue homogenate was used for a test.
A test compound was dissolved in an assay buffer [50 mmol/L Tris/HCl (pH 7.4), 5 mmol/L EDTA], and [^3H]-N^α-methylhistamine (1 nmol/L) and the tissue homogenate (20 μg, in terms of protein amount) were added thereto, and then, the mixture was incubated at 25° C. for 1 hour. Then, the reaction was terminated by rapid suction filtration on a glass filter [GF/B: Whatman, previously soaked in 0.3 w/v % polyethylenimine for about 30 min]. Then, the glass filter was washed three times with 3 mL of assay buffer. This glass filter was transferred into a scintillation vial and dried at 60° C. for 30 minutes. Then, 0.5 mL of Ultimagold (Perkin Elmer) was added thereto, and the radioactivity (binding amount of [^3H]-N^α-methylhistamine) was measured using a liquid scintillation counter. The obtained value was used as a binding amount in the presence of the test compound. The same procedure as described above was carried out in the absence of the test compound, and the binding amount of [^3H]-N^α-methylhistamine obtained at this time was used as a binding amount in the absence of the test compound. Further, the binding amount of [^3H]-N^α-methylhistamine obtained in the presence of 10 μmol/L thioperamide was used as a non-specific binding amount. An inhibitory action of [^3H]-N^α-methylhistamine binding was represented by an inhibition ratio in terms of 1 μmol/L of the test compound calculated by the following Equation (1).
Inhibition ratio(%)={1−[(Binding amount in the presence of test compound)−(Non-specific binding amount)]/[(Binding amount in the absence of test compound)−(Non-specific binding amount)]}×100 (1)

T1 sequence (Q9QYN8 whole entry): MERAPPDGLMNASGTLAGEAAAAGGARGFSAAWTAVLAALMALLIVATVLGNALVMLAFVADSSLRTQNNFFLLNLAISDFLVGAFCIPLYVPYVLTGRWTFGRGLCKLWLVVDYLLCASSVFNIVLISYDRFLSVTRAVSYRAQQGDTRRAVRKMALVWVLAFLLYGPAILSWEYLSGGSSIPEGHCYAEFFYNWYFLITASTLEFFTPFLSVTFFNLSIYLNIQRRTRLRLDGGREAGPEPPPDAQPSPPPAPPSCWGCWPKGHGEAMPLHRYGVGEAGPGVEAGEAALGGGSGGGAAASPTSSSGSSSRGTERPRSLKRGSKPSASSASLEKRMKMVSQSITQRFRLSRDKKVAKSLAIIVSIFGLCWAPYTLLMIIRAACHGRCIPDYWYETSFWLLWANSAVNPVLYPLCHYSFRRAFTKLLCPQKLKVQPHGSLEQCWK

SMILES | inhibition at 1 µM [%]
CC1CC(C)CN(CCN2CCN(CCCN3CCC(C#N)CC3)C2=C(C#N)C#N)C1 (stereo not shown) [Compound 42, {1-[3-(4-Cyanopiperidino)propyl]-3-[2-(3,5-dimethylpiperidino)ethyl]imidazolidin-2-ylidene}malononitrile] | ≥ 80
C[C@@H]1C[C@H](C)CN(CCN2CCN(CCCN3CCCC3)C2=C(C#N)C#N)C1 [Compound 18, {1-[2-(Cis-3,5-dimethylpiperidino)ethyl]-3-[3-(pyrrolidin-1-yl)propyl]imidazolidin-2-ylidene}malononitrile] | ≥ 80
N#CC(C#N)=C1N(CCCN2CC=CCC2)CCN1CCCN1CCCCC1 [Compound 90, {1-[3-(1,2,3,6-Tetrahydropyridin-1-yl)propyl]-3-(3-piperidinopropyl)imidazolidin-2-ylidene}malononitrile] | ≥ 80
CC1CCCN1CCCN1CCN(CCCN2CC=CCC2)C1=C(C#N)C#N (stereo not shown) [Compound 92, {1-[3-(1,2,3,6-Tetrahydropyridin-1-yl)propyl]-3-[3-(2-methylpyrrolidin-1-yl)propyl]imidazolidin-2-ylidene}malononitrile] | ≥ 80
N#CC(C#N)=C1N(CCCN2CCCCC2)CCN1CCCN1CCOCC1 [Compound 83, [1-(3-Morpholinopropyl)-3-(3-piperidinopropyl)imidazolidin-2-ylidene]malononitrile] | ≥ 80
CN1CCN(CCCN2CCN(CCCN3CCCCC3)C2=C(C#N)C#N)CC1 [Compound 76, {1-[3-(4-Methylpiperazin-1-yl)propyl]-3-(3-piperidinopropyl)imidazolidin-2-ylidene}malononitrile] | ≥ 80
N#CC(C#N)=C1N(CCCCN2CCCCC2)CCN1CCCN1CCCCC1 [Compound 8, [1-(4-Piperidinobutyl)-3-(3-piperidinopropyl)imidazolidin-2-ylidene]malononitrile] | ≥ 80
N#CC(C#N)=C1N(CCCN2CCc3ccccc3C2)CCN1CCN1CCCCC1 [Compound 52, {1-[3-(1,2,3,4-Tetrahydroisoquinolin-2-yl)propyl]-3-(2-piperidinoethyl)imidazolidin-2-ylidene}malononitrile] | ≥ 80
CC1CC(C)CN(CCCN2CCN(CCCN3CC=CCC3)C2=C(C#N)C#N)C1 (stereo not shown) [Compound 91, {1-[3-(1,2,3,6-Tetrahydropyridin-1-yl)propyl]-3-[3-(3,5-dimethylpiperidino)propyl]imidazolidin-2-ylidene}malononitrile] | ≥ 80
CC1CCCN1CCCN1CCN(CCN2C[C@H](C)C[C@H](C)C2)C1=C(C#N)C#N (relative stereo) [Compound 20, {1-[2-(Cis-3,5-dimethylpiperidino)ethyl]-3-[3-(2-methylpyrrolidin-1-yl)propyl]imidazolidin-2-ylidene}malononitrile] | ≥ 80
N#CC(C#N)=C1N(CCCN2CCCCCC2)CCN1CCN1CCCCC1 [Compound 46, {1-[3-(Azepan-1-yl)propyl]-3-(2-piperidinoethyl)imidazolidin-2-ylidene}malononitrile] | ≥ 80
N#CC(C#N)=C1N(CCCN2CC=CCC2)CCN1CCCN1CC=CCC1 [Compound 88, {1,3-bis[3-(1,2,3,6-Tetrahydropyridin-1-yl)propyl]imidazolidin-2-ylidene}malononitrile] | ≥ 80
CC1CCCN1CCN1CCN(CCCN2CCCC2)C1=C(C#N)C#N (stereo not shown) [Compound 54, {1-[2-(2-Methylpyrrolidin-1-yl)ethyl]-3-[3-(3-pyrrolidin-1-yl)propyl]imidazolidin-2-ylidene}malononitrile] | ≥ 80
N#CC(C#N)=C1N(CCN2CCCCC2)CCN1CCN1CCCCC1 [Compound 5, [1,3-Bis(2-piperidinoethyl)imidazolidin-2-ylidene]malononitrile] | ≥ 80
CC1CCCN1CCCN1CCN(CCN2CCCCC2)C1=C(C#N)C#N (stereo not shown) [Compound 33, {1-[3-(2-Methylpyrrolidin-1-yl)propyl]-3-(2-piperidinoethyl)imidazolidin-2-ylidene}malononitrile] | ≥ 80

Next, values leading:

inhibition at 1 µM [%] | SMILES
≥ 80 | CC1CCCN1CCCNC(=C(C#N)C#N)N1CCC(CN2CCCC2C)CC1 (stereo not shown) [Compound 174, {[4-(2-Methylpyrrolidin-1-ylmethyl)piperidino][3-(2-methylpyrrolidin-1-yl)propylamino]methylene}malononitrile]
≥ 80 | CC1CCCN1CCCN1CCN(CCCN2CCCC2)C1=C(C#N)C#N (stereo not shown) [Compound 97, {1-[3-(2-Methylpyrrolidin-1-yl)propyl]-3-[3-(pyrrolidin-1-yl)propyl]imidazolidin-2-ylidene}malononitrile]
≥ 80 | C[C@@H]1CCCN1CCN1CCN(CCCN2CCC[C@@H]2C)C1=C(C#N)S(=O)(=O)c1ccccc1 [Compound 243, {3-[2-((R)-2-methylpyrrolidin-1-yl)ethyl]-1-[3-((S)-2-methylpyrrolidin-1-yl)propyl]imidazolidin-2-ylidene}benzenesulfonylacetonitrile]
≥ 80 | N#CC(C#N)=C(NCCCN1CCCCC1)N1CCC(CN2CCCCC2)CC1 [Compound 172, [(4-Piperidinomethylpiperidino)(3-piperidinopropylamino)methylene]malononitrile]
≥ 80 | CC1CCCN1CC1CCN(C(=C(C#N)C#N)N(C)CCN2CCC[C@@H]2C)CC1 (stereo partly drawn) [Compound 157, ({N-methyl-N-[2-((S)-2-methylpyrrolidin-1-yl)ethyl]amino}[4-(2-methylpyrrolidin-1-ylmethyl)piperidino]methylene)malononitrile]
≥ 80 | C[C@H]1CCCN1CCCCN1CCN(CCN2CCC[C@@H]2C)C1=C(C#N)C#N [Compound 190, {1-[4-((S)-2-methylpyrrolidin-1-yl)butyl]-3-[2-((S)-2-methylpyrrolidin-1-yl)ethyl]imidazolidin-2-ylidene}malononitrile]
≥ 80 | CC1CCCN(CCCN2CCN(CCCN3CC(C)CC(C)C3)C2=C(C#N)C#N)C1 (stereo not shown) [Compound 105, {1-[3-(3,5-Dimethylpiperidino)propyl]-3-[3-(3-methylpiperidino)propyl]imidazolidin-2-ylidene}malononitrile]
≥ 80 | N#CN=C1N(CCCN2CCCCC2)CCN1CCCN1CCCCC1 [Compound 139, 1,3-Bis(3-piperidinopropyl)imidazolidin-2-ylidene Cyanoamide Difumarate]
≥ 80 | CC(C)N1CCC(CN2CCN(CC3CCN(C(C)C)CC3)C2=C(C#N)C#N)CC1 [Compound 134, [1,3-Bis(1-isopropylpiperidin-4-ylmethyl)imidazolidin-2-ylidene]malononitrile]
≥ 80 | C[C@H]1CCCN1CCCN1C(=C(C#N)C#N)N(CCCN2CCC[C@@H]2C)c2ccccc21 [Compound 125, {1,3-Bis[3-((S)-2-methylpyrrolidin-1-yl)propyl]benzimidazolidin-2-ylidene}malononitrile]
≥ 80 | N#CC(C#N)=C1N(CCCN2CCCCC2)CCN1CCCN1CCCC1 [Compound 95, {1-(3-Piperidinopropyl)-3-[3-(pyrrolidin-1-yl)propyl]imidazolidin-2-ylidene}malononitrile]
≥ 80 | C=CCN1CCC(N2CCN(CCCN3CCCCC3)C2=C(C#N)C#N)CC1 [Compound 227, [1-(1-Allylpiperidin-4-yl)-3-(3-piperidinopropyl)imidazolidin-2-ylidene]malononitrile]
≥ 80 | CC1CC(C)CN(CCCN2CCN(CCCN3CCCC3)C2=C(C#N)C#N)C1 (stereo not shown) [Compound 96, {1-[3-(3,5-Dimethylpiperidino)propyl]-3-[3-(pyrrolidin-1-yl)propyl]imidazolidin-2-ylidene}malononitrile]
≥ 80 | CC1CCCCN1CCCN1CCN(CCCN2CCCC2)C1=C(C#N)C#N (stereo not shown) [Compound 93, {1-[3-(2-Methylpiperidino)propyl]-3-[3-(pyrrolidin-1-yl)propyl]imidazolidin-2-ylidene}malononitrile]
≥ 80 | C[C@@H]1CCCN1CCCCN1CCN(CCN2CCC[C@H]2C)C1=C(C#N)C#N [Compound 191, {1-[4-((R)-2-methylpyrrolidin-1-yl)butyl]-3-[2-((R)-2-methylpyrrolidin-1-yl)ethyl]imidazolidin-2-ylidene}malononitrile]
≥ 80 | CC1CCCN(CCN2CCN(CCCN3CCC[C@@H]3C)C2=C(C#N)C#N)C1 (stereo partly drawn) [Compound 199, {3-[2-(3-Methylpiperidino)ethyl]-1-[3-((S)-2-methylpyrrolidin-1-yl)propyl]imidazolidin-2-ylidene}malononitrile]
